Results as given in PubChem BioAssay (NCI).
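Grown in 96-well plates, cells were treated for 48 hours with each compound at five concentrations. Insufficient inhibition: endpoint recorded as highest concentration tested. GI50 marks 50% less growth. TGI denotes the concentration required for complete inhibition of growth.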

How the values were obtained:
Assay in all cases: growth of human tumour cells (NCI), 48 h
U251 CNS = test system: U251 CNS
TK-10 renal = test system: TK-10 renal
NCI-H522 lung = test system: NCI-H522 lung
PC-3 prostate = test system: PC-3 prostate
RPMI-8226 leukemia = test system: RPMI-8226 leukemia
SF-539 CNS = test system: SF-539 CNS
HT29 colon = test system: HT29 colon
COLO 205 colon = test system: COLO 205 colon
LOX IMVI melanoma = test system: LOX IMVI melanoma
HS 578T breast = test system: HS 578T breast
KM12 colon = test system: KM12 colon
NCI-H23 lung = test system: NCI-H23 lung
OVCAR-3 ovarian = test system: OVCAR-3 ovarian
CAKI-1 renal = test system: CAKI-1 renal
786-0 renal = test system: 786-0 renal
T-47D breast = test system: T-47D breast
RXF 393 renal = test system: RXF 393 renal
NCI-H460 lung = test system: NCI-H460 lung
CCRF-CEM leukemia = test system: CCRF-CEM leukemia
MDA-MB-435 = test system: MDA-MB-435
MALME-3M melanoma = test system: MALME-3M melanoma
A549 NSCLC = test system: A549 NSCLC
OVCAR-8 ovarian = test system: OVCAR-8 ovarian
OVCAR-5 ovarian = test system: OVCAR-5 ovarian
BT-549 breast = test system: BT-549 breast
M14 melanoma = test system: M14 melanoma
EKVX NSCLC = test system: EKVX NSCLC
HCC-2998 colon = test system: HCC-2998 colon
NCI-H226 lung = test system: NCI-H226 lung
A498 renal = test system: A498 renal
UO-31 renal = test system: UO-31 renal
HOP-92 NSCLC = test system: HOP-92 NSCLC
SK-MEL-28 melanoma = test system: SK-MEL-28 melanoma
MOLT-4 leukemia = test system: MOLT-4 leukemia
MDA-MB-468 breast = test system: MDA-MB-468 breast
SNB-19 CNS = test system: SNB-19 CNS
DU-145 prostate = test system: DU-145 prostate
SNB-75 CNS = test system: SNB-75 CNS
SW-620 colon = test system: SW-620 colon
HCT-116 colon = test system: HCT-116 colon
NCI/ADR-RES ovarian = test system: NCI/ADR-RES ovarian
UACC-257 melanoma = test system: UACC-257 melanoma
ACHN renal = test system: ACHN renal
K-562 leukemia = test system: K-562 leukemia
HL-60(TB) leukemia = test system: HL-60(TB) leukemia
HCT-15 colon = test system: HCT-15 colon
SK-MEL-5 melanoma = test system: SK-MEL-5 melanoma
SR leukemia = test system: SR leukemia
SF-295 CNS = test system: SF-295 CNS
HOP-62 NSCLC = test system: HOP-62 NSCLC
SK-MEL-2 melanoma = test system: SK-MEL-2 melanoma
SK-OV-3 ovarian = test system: SK-OV-3 ovarian
OVCAR-4 ovarian = test system: OVCAR-4 ovarian
UACC-62 melanoma = test system: UACC-62 melanoma
SF-268 CNS = test system: SF-268 CNS
SN12C renal = test system: SN12C renal
MCF7 breast = test system: MCF7 breast
MDA-MB-231 breast = test system: MDA-MB-231 breast
IGROV1 ovarian = test system: IGROV1 ovarian

For `O=C(NO)c1ccc(CNc2nc(-c3ccccc3)c3ccccc3n2)cc1`, the GI50 (U251 CNS) was 2.37 µM, the TGI (U251 CNS) was 8.78 µM and the GI50 (TK-10 renal) was 2.12 µM. The TGI (TK-10 renal) was over 19.8 µM, the GI50 (NCI-H522 lung) was 1.85 µM and the TGI (NCI-H522 lung) was 8.25 µM. The GI50 (PC-3 prostate) was 4.84 µM, the TGI (PC-3 prostate) was 27.3 µM and the GI50 (RPMI-8226 leukemia) was 2.36 µM. It also gave a TGI (RPMI-8226 leukemia) of over 28 µM, a GI50 (SF-539 CNS) of 2.77 µM and a TGI (SF-539 CNS) of over 11.3 µM. For the same molecule, the GI50 (HT29 colon) was 2.46 µM, the TGI (HT29 colon) was over 23.3 µM and the GI50 (COLO 205 colon) was 1.69 µM. The TGI (COLO 205 colon) was 3.81 µM, the GI50 (LOX IMVI melanoma) was 2.08 µM and the TGI (LOX IMVI melanoma) was 5.35 µM. It also gave a GI50 (HS 578T breast) of 2.47 µM, a TGI (HS 578T breast) of over 28 µM and a GI50 (KM12 colon) of 3.69 µM. It also gave a TGI (KM12 colon) of over 12.5 µM, a GI50 (NCI-H23 lung) of 2.24 µM and a TGI (NCI-H23 lung) of 7.72 µM. For the same molecule, the GI50 (OVCAR-3 ovarian) was 2.68 µM, the TGI (OVCAR-3 ovarian) was 8.7 µM and the GI50 (CAKI-1 renal) was 2.5 µM. For the same molecule, the TGI (CAKI-1 renal) was 8.52 µM, the GI50 (786-0 renal) was 2.75 µM and the TGI (786-0 renal) was 11.8 µM. For the same molecule, the GI50 (T-47D breast) was 2.28 µM, the TGI (T-47D breast) was 21.7 µM and the GI50 (RXF 393 renal) was 1.23 µM. For the same molecule, the TGI (RXF 393 renal) was 3.58 µM, the GI50 (NCI-H460 lung) was 3.04 µM and the TGI (NCI-H460 lung) was over 17.1 µM. The GI50 (CCRF-CEM leukemia) was 2.73 µM, the TGI (CCRF-CEM leukemia) was over 28 µM and the GI50 (MDA-MB-435) was 2.4 µM. For the same molecule, the TGI (MDA-MB-435) was over 9.06 µM, the GI50 (MALME-3M melanoma) was 1.36 µM and the TGI (MALME-3M melanoma) was 4.72 µM. The GI50 (A549 NSCLC) was 3.23 µM, the TGI (A549 NSCLC) was over 13.4 µM and the GI50 (OVCAR-8 ovarian) was 2.65 µM. For the same molecule, the TGI (OVCAR-8 ovarian) was over 12.4 µM, the GI50 (OVCAR-5 ovarian) was 1.55 µM and the TGI (OVCAR-5 ovarian) was 4.87 µM. It also gave a GI50 (BT-549 breast) of 3.99 µM, a TGI (BT-549 breast) of 15.8 µM and a GI50 (M14 melanoma) of 3.2 µM. The TGI (M14 melanoma) was over 13.5 µM, the GI50 (EKVX NSCLC) was 3.59 µM and the TGI (EKVX NSCLC) was over 17 µM. For the same molecule, the GI50 (HCC-2998 colon) was 1.82 µM, the TGI (HCC-2998 colon) was 5.63 µM and the GI50 (NCI-H226 lung) was 2.67 µM. For the same molecule, the TGI (NCI-H226 lung) was 14.6 µM, the GI50 (A498 renal) was 1.68 µM and the TGI (A498 renal) was 5.45 µM. It also gave a GI50 (UO-31 renal) of 1.99 µM, a TGI (UO-31 renal) of 6.71 µM and a GI50 (HOP-92 NSCLC) of 1.95 µM. The TGI (HOP-92 NSCLC) was 6.6 µM, the GI50 (SK-MEL-28 melanoma) was 2.42 µM and the TGI (SK-MEL-28 melanoma) was 8.17 µM. For the same molecule, the GI50 (MOLT-4 leukemia) was 3.01 µM, the TGI (MOLT-4 leukemia) was over 28 µM and the GI50 (MDA-MB-468 breast) was 1.49 µM. It also gave a TGI (MDA-MB-468 breast) of 5.41 µM, a GI50 (SNB-19 CNS) of 2.83 µM and a TGI (SNB-19 CNS) of 9.91 µM. For the same molecule, the GI50 (DU-145 prostate) was 2.78 µM, the TGI (DU-145 prostate) was over 28 µM and the GI50 (SNB-75 CNS) was 2.36 µM. The TGI (SNB-75 CNS) was over 12 µM, the GI50 (SW-620 colon) was 2.09 µM and the TGI (SW-620 colon) was 5.91 µM. For the same molecule, the GI50 (HCT-116 colon) was 2.04 µM, the TGI (HCT-116 colon) was 8.01 µM and the GI50 (NCI/ADR-RES ovarian) was 0.159 µM. It also gave a TGI (NCI/ADR-RES ovarian) of 0.954 µM, a GI50 (UACC-257 melanoma) of 2.02 µM and a TGI (UACC-257 melanoma) of over 16.5 µM. It also gave a GI50 (ACHN renal) of 2.05 µM, a TGI (ACHN renal) of 5.55 µM and a GI50 (K-562 leukemia) of 3.05 µM. For the same molecule, the TGI (K-562 leukemia) was over 28 µM, the GI50 (HL-60(TB) leukemia) was 3.59 µM and the TGI (HL-60(TB) leukemia) was over 28 µM. For the same molecule, the GI50 (HCT-15 colon) was 2.85 µM, the TGI (HCT-15 colon) was 9.1 µM and the GI50 (SK-MEL-5 melanoma) was 1.62 µM. For the same molecule, the TGI (SK-MEL-5 melanoma) was 3.32 µM, the GI50 (SR leukemia) was over 18.1 µM and the TGI (SR leukemia) was over 28 µM. It also gave a GI50 (SF-295 CNS) of 1.84 µM, a TGI (SF-295 CNS) of 4.69 µM and a GI50 (HOP-62 NSCLC) of 2.88 µM. The TGI (HOP-62 NSCLC) was 12.2 µM, the GI50 (SK-MEL-2 melanoma) was 1.42 µM and the TGI (SK-MEL-2 melanoma) was 7.54 µM. For the same molecule, the GI50 (SK-OV-3 ovarian) was 2.15 µM, the TGI (SK-OV-3 ovarian) was 6.25 µM and the GI50 (OVCAR-4 ovarian) was 5.4 µM. For the same molecule, the TGI (OVCAR-4 ovarian) was over 20.6 µM, the GI50 (UACC-62 melanoma) was 1.34 µM and the TGI (UACC-62 melanoma) was 3.16 µM. It also gave a GI50 (SF-268 CNS) of 3.57 µM, a TGI (SF-268 CNS) of 15.2 µM and a GI50 (SN12C renal) of 3.09 µM. It also gave a TGI (SN12C renal) of 12 µM, a GI50 (MCF7 breast) of 3.22 µM and a TGI (MCF7 breast) of over 28 µM. The GI50 (MDA-MB-231 breast) was 2.44 µM, the TGI (MDA-MB-231 breast) was 8.22 µM and the GI50 (IGROV1 ovarian) was 2.29 µM. It also gave a TGI (IGROV1 ovarian) of 6.96 µM.
